Read-outs that look alike come from different tables or passages of the source.
Target: 11β-HSD1 (Homo sapiens, UniProt P28845)
Test: biochemical
Settings: for IC50: IC50 Range
[1] = Biological Test Example 1, microsomes from CHO cells overexpressing human 11β-HSD1
[2] = read-out: Average % inhibition at 100 nM
[3] = read-out: Average % inhibition at 100 nM, Biological Test Example 1, 100 nM

Chain of 11β-HSD1 (P28845 whole entry): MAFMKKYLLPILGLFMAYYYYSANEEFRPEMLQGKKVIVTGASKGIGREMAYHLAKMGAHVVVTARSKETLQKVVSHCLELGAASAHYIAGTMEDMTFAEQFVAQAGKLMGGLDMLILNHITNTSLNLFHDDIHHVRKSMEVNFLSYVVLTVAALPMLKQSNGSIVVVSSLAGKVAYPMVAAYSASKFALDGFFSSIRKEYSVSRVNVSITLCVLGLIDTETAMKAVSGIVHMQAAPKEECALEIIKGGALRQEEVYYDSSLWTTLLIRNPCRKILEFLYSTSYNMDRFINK

Structure (SMILES) | IC50 [1] | inhibition at 0.1 µM [2] | inhibition at 0.1 µM [3] | IC50
C[C@@H](c1ccc(CC(C)(C)O)cc1)N1CC[C@](CCCO)(c2ccccc2)OC1=O [EXAMPLE 312, (R)-3-((S)-1-(4-(2-hydroxy-2-methylpropyl)phenyl)ethyl)-6-(3-hydroxypropyl)-6-phenyl-1,3-oxazinan-2-one] | < 100 nM | 85.7% | – | –
COc1ccc([C@H](C)N2CC[C@](CCCNS(C)(=O)=O)(c3ccc(F)cc3)OC2=O)cc1 [EXAMPLE 314, N-(3-((R)-6-(4-fluorophenyl)-3-((S)-1-(4-methoxyphenyl)ethyl)-2-oxo-1,3-oxazinan-6-yl)propyl)methanesulfonamide] | < 100 nM | – | 96.5% | –
COc1ccc([C@H](C)N2CC[C@](CCC(N)=O)(c3ccccc3)OC2=O)cc1 [EXAMPLE 315, 3-((R)-3-((S)-1-(4-methoxyphenyl)ethyl)-2-oxo-6-phenyl-1,3-oxazinan-6-yl)propanamide] | < 100 nM | – | 93.2% | –
C[C@@H](C1CCCCC1)N1CC[C@](CCC(N)=O)(c2ccc(F)cc2)OC1=O [EXAMPLE 317, 3-((R)-3-((S)-1-cyclohexylethyl)-6-(4-fluorophenyl)-2-oxo-1,3-oxazinan-6-yl)propanamide] | < 100 nM | – | 87.5% | –
C[C@@H](C1CCCCC1)N1CC[C@](CCNS(C)(=O)=O)(c2ccc(F)cc2)OC1=O [EXAMPLE 318, N-(2-((S)-3-((S)-1-cyclohexylethyl)-6-(4-fluorophenyl)-2-oxo-1,3-oxazinan-6-yl)ethyl)methanesulfonamide] | < 100 nM | – | 83.8% | –
C[C@@H](C1CCCCC1)N1CC[C@](CCCNS(C)(=O)=O)(c2ccc(F)cc2)OC1=O [EXAMPLE 319, N-(3-((R)-3-((S)-1-cyclohexylethyl)-6-(4-fluorophenyl)-2-oxo-1,3-oxazinan-6-yl)propyl)methanesulfonamide] | < 100 nM | – | 93.4% | –
CC(=O)C[C@]1(c2ccc(F)cc2)CCN([C@@H](C)c2ccc(OC(F)F)cc2)C(=O)O1 [EXAMPLE 321, (S)-3-((S)-1-(4-(difluoromethoxy)phenyl)ethyl)-6-(4-fluorophenyl)-6-(2-oxopropyl)-1,3-oxazinan-2-one] | < 100 nM | – | 96.1% | –
CC[C@@H](c1ccc(OC(F)F)cc1)N1CC[C@](CCC(N)=O)(c2ccc(F)cc2)OC1=O [EXAMPLE 326, 3-((R)-3-((S)-1-(4-(difluoromethoxy)phenyl)propyl)-6-(4-fluorophenyl)-2-oxo-1,3-oxazinan-6-yl)propanamide] | < 100 nM | – | 97.7% | –
C[C@@H](c1ccc(OC(F)F)cc1)N1CC[C@](CCO)(c2ccccc2)OC1=O [EXAMPLE 327, (S)-3-((S)-1-(4-(difluoromethoxy)phenyl)ethyl)-6-(2-hydroxyethyl)-6-phenyl-1,3-oxazinan-2-one] | < 100 nM | – | 97.2% | –
C[C@@H](c1ccc(OC(F)F)cc1)N1CC[C@](CCCO)(c2ccccc2)OC1=O [EXAMPLE 329, (R)-3-((S)-1-(4-(difluoromethoxy)phenyl)ethyl)-6-(3-hydroxypropyl)-6-phenyl-1,3-oxazinan-2-one] | < 100 nM | – | 99.8% | –
C[C@@H](c1ccc(OC(F)F)cc1)N1CC[C@](CCCNS(C)(=O)=O)(c2ccccc2)OC1=O [EXAMPLE 331, N-(3-((R)-3-((S)-1-(4-(difluoromethoxy)phenyl)ethyl)-2-oxo-6-phenyl-1,3-oxazinan-6-yl)propyl)methanesulfonamide] | < 100 nM | – | 97.1% | –
CC(C)(C)OC(=O)N1CCC[C@H](N2CC[C@](CCC(N)=O)(c3ccc(F)cc3)OC2=O)C1 [EXAMPLE 339, (S)-tert-butyl 3-((R)-6-(3-amino-3-oxopropyl)-6-(4-fluorophenyl)-2-oxo-1,3-oxazinan-3-yl)piperidine-1-carboxylate] | < 100 nM | – | 65.9% | –
O=C(OCc1ccccc1)N1CCC[C@H](N2CC[C@](CCCO)(c3ccc(F)cc3)OC2=O)C1 [EXAMPLE 340, (S)-benzyl 3-((R)-6-(4-fluorophenyl)-6-(3-hydroxypropyl)-2-oxo-1,3-oxazinan-3-yl)piperidine-1-carboxylate] | < 100 nM | 75.9% | – | –
O=C1O[C@@](CCCO)(c2ccc(F)cc2)CCN1[C@H]1CCCN(Cc2ccccc2)C1 [EXAMPLE 341, (R)-3-((S)-1-benzylpiperidin-3-yl)-6-(4-fluorophenyl)-6-(3-hydroxypropyl)-1,3-oxazinan-2-one] | – | 82% | – | < 100 nM
O=C1OC(CCCO)(c2ccc(F)cc2)CCN1Cc1ccc(Cl)cc1Cl (centres unmarked) [EXAMPLE 343, 3-(2,4-dichlorobenzyl)-6-(4-fluorophenyl)-6-(3-hydroxypropyl)-1,3-oxazinan-2-one] | < 100 nM | 82.3% | – | –
C=CCC1(c2ccc(F)cc2)CCN(Cc2cc(Cl)ccc2Cl)C(=O)O1 (centres unmarked) [EXAMPLE 344, 6-allyl-3-(2,5-dichlorobenzyl)-6-(4-fluorophenyl)-1,3-oxazinan-2-one] | < 100 nM | – | 65.7% | –
O=C1OC(CCCO)(c2ccc(F)cc2)CCN1Cc1cc(Cl)ccc1Cl (centres unmarked) [EXAMPLE 345, 3-(2,5-dichlorobenzyl)-6-(4-fluorophenyl)-6-(3-hydroxypropyl)-1,3-oxazinan-2-one] | < 100 nM | – | 74.7% | –
C=CCC1(c2ccc(F)cc2)CCN(Cc2c(Cl)cccc2Cl)C(=O)O1 (centres unmarked) [EXAMPLE 346, 6-allyl-3-(2,6-dichlorobenzyl)-6-(4-fluorophenyl)-1,3-oxazinan-2-one] | < 100 nM | – | 94% | –
O=C1OC(CCCO)(c2ccc(F)cc2)CCN1Cc1c(Cl)cccc1Cl (centres unmarked) [EXAMPLE 347, 3-(2,6-dichlorobenzyl)-6-(4-fluorophenyl)-6-(3-hydroxypropyl)-1,3-oxazinan-2-one] | < 100 nM | – | 96% | –
O=C1OC(CCCO)(c2ccc(F)cc2)CCN1Cc1c(F)cccc1F (centres unmarked) [EXAMPLE 348, 3-(2,6-difluorobenzyl)-6-(4-fluorophenyl)-6-(3-hydroxypropyl)-1,3-oxazinan-2-one] | < 100 nM | – | 48.9% | –
O=C1OC(CCCO)(c2ccc(F)cc2)CCN1Cc1c(F)cccc1Cl (centres unmarked) [EXAMPLE 349, 3-(2-chloro-6-fluorobenzyl)-6-(4-fluorophenyl)-6-(3-hydroxypropyl)-1,3-oxazinan-2-one] | < 100 nM | – | 89.8% | –
C=CCC1(c2ccc(F)cc2)CCN(Cc2ccccc2Br)C(=O)O1 (centres unmarked) [EXAMPLE 350, 6-allyl-3-(2-bromobenzyl)-6-(4-fluorophenyl)-1,3-oxazinan-2-one] | < 100 nM | – | 91.8% | –
O=C1OC(CCCO)(c2ccc(F)cc2)CCN1Cc1ccccc1Br (centres unmarked) [EXAMPLE 351, 3-(2-bromobenzyl)-6-(4-fluorophenyl)-6-(3-hydroxypropyl)-1,3-oxazinan-2-one] | < 100 nM | – | 83.1% | –
COC(=O)c1ccccc1CN1CC[C@](CCCO)(c2ccc(F)cc2)OC1=O [EXAMPLE 352, (R)-methyl 2-((6-(4-fluorophenyl)-6-(3-hydroxypropyl)-2-oxo-1,3-oxazinan-3-yl)methyl)benzoate] | < 100 nM | – | 60.8% | –
C[C@@H](c1cccc(Br)c1)N1CC[C@](CCCO)(c2ccc(F)cc2)OC1=O [EXAMPLE 354, (R)-3-((S)-1-(3-bromophenyl)ethyl)-6-(4-fluorophenyl)-6-(3-hydroxypropyl)-1,3-oxazinan-2-one] | < 100 nM | – | 95.2% | –
